For the assay, the system named is Aβ42 production in H4 APP751 SWE clone 8.20 cells. The experiment in a line: Cellular assay for inhibition of Aβ1-42 production. The assay is classed as cell-based. The note with it: 19 h incubation. How it is done: Cellular Assays for Inhibition of Aβ1-40 and Aβ1-42 Production
H4 cells stably transfected with APP751 containing the Swedish mutation (H4 APP751 SWE clone 8.20, developed at BMS) were maintained in log phase through twice weekly passage at a 1:20 split. […] Following incubation for 19 h in 5% CO2 at 37° C., plates were briefly centrifuged (1000 rpm, 5 min). A 10 μl aliquot from each well was transferred to a second assay plate (Costar 3709) for Aβ40 measurements. Antibody cocktails were freshly prepared by dilution into 40 mM Tris-HCl (pH 7.4) with 0.2% BSA and added to assay plates. For Aβ42 measurements, antibodies specific for the Aβ42 neoepitope (565, developed at BMS; conjugated to the Wallac reagent (Perkin Elmer)) and the N-terminal sequence of Aβ peptide (26D6, developed at SIBIA; conjugated to […] (Perkin Elmer)) were mixed and 20 μl of the mixture was added to each well of the incubated cell plate yielding a final concentration of 0.8 ng/well 565 and 75 ng/well 26D6. For the Aβ40 measurements, antibodies specific for the Aβ40 neoepitope (TSD, developed at BMS; conjugated to the Wallac reagent (Perkin Elmer)) and 26D6 as described above were mixed and 20 μl of the mixture was added to the 10 μl aliquots which had been removed previously from the cell plate yielding a final concentration of 1.6 ng/well TSD and 17.5 ng/well 26D6. Assay plates containing antibodies were sealed with aluminum foil and incubated overnight at 4° C. Signal was determined using a Viewlux counter (Perkin Elmer) and IC50 values determined using curve fitting in CurveMaster (Excel Fit based).

The mark [1] stands for this setting: read-out: Activity Rating (Aβ42 cellular IC50), class symbol.
Setting [2] is: read-out: Activity Rating (Aβ42 cellular IC50), given as number.

Read-outs that look alike come from different tables or passages of the source.

With `CNc1nc(Nc2ccc(C#N)c(OC)c2)nc2c1CC[C@H]2c1ccccc1F` (single isomer, unassigned) [Example 4A], the IC50 under setting [1] was in the range of 10 to 100 nM.
For the molecule `CNc1nc(Nc2ccc(C#N)c(OC)c2)nc2c1CC[C@H]2c1ccccc1OC` (single isomer, unassigned) [Example 1A], under setting [2], the IC50 stood at 13 nM.
Turning to `CNc1nc(Nc2ccc(C#N)c(OC)c2)nc2c1CC[C@@H]2c1ccccc1OC` [Example 1B, (R)-2-methoxy-4-(7-(2-methoxyphenyl)-4-(methylamino)-6,7-dihydro-5H-cyclopenta[d]pyrimidin-2-ylamino)benzonitrile], the IC50 under setting [1] was 10 to 100 nM.
As for `CNc1nc(Nc2ccc(C#N)c(OC)c2)nc2c1CC[C@H]2c1ccccc1Cl` (single isomer, unassigned) [Example 3A], the IC50 under setting [1] lay in the range of 1.5 to 9.9 nM.
Turning to `CNc1nc(Nc2ccc(C#N)c(OC)c2)nc2c1CC[C@@]2(C)c1ccc(F)cc1` [Example 2A, (S)-4-(7-(4-fluorophenyl)-7-methyl-4-(methylamino)-6,7-dihydro-5H-cyclopenta[d]pyrimidin-2-ylamino)-2-methoxybenzonitrile], under setting [2], the IC50 was 200 nM.
Still for that read-out and setting: under `CNc1nc(Nc2ccc(C#N)c(OC)c2)nc2c1CC[C@H]2c1c(F)cc(F)cc1F` (single isomer, unassigned) [Example 5A] stands 11 nM.
As for `CNc1nc(Nc2ccc(C#N)c(OC)c2)nc2c1CCC2c1ccc(C(F)(F)F)cc1F` (centres unmarked) [Example 8, 4-(7-(2-fluoro-4-(trifluoromethyl)phenyl)-4-(methylamino)-6,7-dihydro-5H-cyclopenta[d]pyrimidin-2-ylamino)-2-methoxybenzonitrile], the IC50 under setting [1] was in the range of 10 to 100 nM.
With `CNc1nc(Nc2ccc(C#N)c(OC)c2)nc2c1CC[C@H]2c1ccc(Cl)cc1F` (single isomer, unassigned) [Example 6A], the IC50 under setting [1] is 10 to 100 nM.
Consider `CNc1nc(Nc2ccc(C#N)c(OC)c2)nc2c1CCC2c1ccc(OC(F)(F)F)cc1F` (centres unmarked) [Example 9, 4-(7-(2-fluoro-4-(trifluoromethoxy)phenyl)-4-(methylamino)-6,7-dihydro-5H-cyclopenta[d]pyrimidin-2-ylamino)-2-methoxybenzonitrile], for which the IC50 under setting [2] is 12 nM.
Turning to `CNc1nc(Nc2ccc(C#N)c(OC)c2)nc2c1CC[C@]2(C)c1ccc(F)cc1` [Example 2B, (R)-4-(7-(4-fluorophenyl)-7-methyl-4-(methylamino)-6,7-dihydro-5H-cyclopenta[d]pyrimidin-2-ylamino)-2-methoxybenzonitrile], the IC50 under setting [1] is 100 to 1000 nM.
Consider `CNc1nc(Nc2ccc(C#N)c(OC)c2)nc2c1CCC2c1cccc(OC)c1` (racemic) [Example 7, 2-methoxy-4-(7-(3-methoxyphenyl)-4-(methylamino)-6,7-dihydro-5H-cyclopenta[d]pyrimidin-2-ylamino)benzonitrile], for which, under setting [1], the IC50 lay within 10 to 100 nM.
